Assay results from publication PMC9096165 (Frontiers in Pharmacology, 2022).
Read-outs that look alike come from different tables or passages of the source.

Assays:
[1] = Pharmacokinetics after single intravenous and oral administration; type: in vivo, male Wistar Han rats
Description: Pharmacokinetics of DF2755A, dissolved in saline solution (NaCl 0.9% w/v), was investigated after single intravenous and oral administrations in male Wistar Han rats. DF2755A was given as a single dose in three animals/group by intravenous (bolus) and oral (by gavage) administrations at a dose of 20 mg/kg. Pharmacokinetic evaluation was carried out on blood samples collected on day 1 at six time points from three animals/group (serial sampling).

CXCR1 = CXCR1 mRNA expression in F11 cells (RT PCR); type: cell-based; details: DF2755A 1 µM + CYP 100 nM
Excerpt: (§1) For these experiments, cells at 18th passage were used.
Triplicate samples were run for each gene.

[2] = tested on: panel of GPCRs, enzymes, ion channels, transporters, and nuclear receptors; assay: Safety screen off-target panel (Eurofins Cerep SafetyScreen44); type: binding; details: tested at 10 μM; all the receptors studied
Description: Selectivity assays were performed at Eurofins Cerep as a contract service. A summary of the protocol and the reference for the assays are listed on the Eurofins Cerep website at (https://www.eurofinsdiscoveryservices.com/catalogmanagement/viewItem/SafetyScreen44-Panel-Cerep/P270). The tested targets are listed below:
GPCRs: A2A (agonist radioligand), α1A (antagonist radioligand), α2A (antagonist radioligand), β1 (agonist radioligand), β2 (agonist radioligand), BK1 (antagonist and agonist radioligand), BK2 (antagonist and agonist radioligand), CB1 (antagonist and agonist radioligand), CB2 (antagonist and agonist radioligand), CCK1 (CCKA) (agonist radioligand), D1 (antagonist radioligand), D2 (antagonist and agonist radioligand), D3 (antagonist and agonist radioligand), ETA (agonist radioligand), H1 (antagonist radioligand), H2 (antagonist radioligand), M1 (antagonist radioligand), M2 (antagonist and agonist radioligand), M3 (antagonist radioligand), NK1 (agonist radioligand), δ (DOP) (agonist radioligand), κ(KOP) (agonist radioligand), µ(MOP) (agonist radioligand), ORL1 (agonist radioligand), 5-HT1A (agonist radioligand), 5-HT1B (antagonist radioligand), 5-HT2A (agonist radioligand), 5-HT2B (agonist radioligand), and V1a (agonist radioligand). […]

CXCR2 = tested on: CXCR2; parameters: method as in Lopes et al., 2016; details: ref Lopes et al., 2016; cited from earlier work
F11 cells = assay: F11 cell viability (CellTiter AQueous One); type: cell-based; details: differentiated F11 cells, 24 h, 0.1 to 5 µM
Description: as §1
[…] Cell viability was determined using the colorimetric method CellTiter AQueous One Solution Cell Proliferation Assay (Promega Corporation, United States), as previously reported ([Brandolini et al., 2017]). The quantity of formed formazan, as a function of viability, was measured at 492 nm using an ELISA plate reader, Infinite F200 (Tecan, Männedorf, Swiss). The results from five independent experiments were expressed as absorbance at 492 nm.

[3] = intravenous 20 mg kg^−1, male Wistar Han rats

Q: Which “overall systemic exposure (AUC0-t (last))” value [1, 3] does the source give for `C[C@H](C(=O)[O-])c1ccc(Nc2nc(C(F)(F)F)cs2)cc1.[Na+]` [DF2755A, sodium (2S)-2-(4-{[4-(trifluoromethyl)-1,3-thiazol-2-yl]amino}phenyl)propanoate] here?
A: 578,017 ng/mlh

Q: And the systemic clearance [1, 3]?
A: slow

Q: And the half-life ([1]; male, Wistar Han, rat, plasma, 20 mg/kg, route not stated, read-out: half-life (converted))?
A: 6.8 h

Q: What about the bioavailability ([1]; rat, plasma, po, 20 mg/kg, male Wistar Han rats, read-out: oral absolute bioavailability (F%)) of the same compound?
A: 86.2%

Q: What about the C0 ([1]; rat, plasma, intravenous 20 mg kg^−1, male Wistar Han rats, read-out: Plasma concentration at time zero (C0)) of the same compound?
A: 117 µg/mL

Q: And the half-life ([1]; rat, plasma, intravenous 20 mg kg^−1, male Wistar Han rats, read-out: t1/2,z (converted))?
A: 8.1 h

Q: And the Vd ([1]; rat, plasma, intravenous 20 mg kg^−1, male Wistar Han rats, read-out: volume of distribution at steady state)?
A: < 1 L/kg

Q: And the Tmax ([1]; rat, plasma, oral 20 mg/kg, male Wistar Han rats)?
A: 2 h

Q: And the Cmax ([1]; rat, plasma, oral 20 mg/kg, male Wistar Han rats, read-out: maximum plasma concentration (Cmax))?
A: 43.5 µg/mL

Q: And the AUC(0-t) ([1]; rat, plasma, oral 20 mg/kg, male Wistar Han rats, read-out: overall systemic exposure (AUC0-t (last)))?
A: 498 µg·h/mL

Q: And the distribution volume ([1]; route not stated)?
A: 0.35 L/kg

Q: And the “CXCR1 mRNA expression in CYP-exposed cells” value (CXCR1)?
A: restored the mRNA expression of all the targets to control values

Q: And the “off-target effects in the safety screen assay” value [2]?
A: neglectable effects

Q: What about the IC50 (CXCR2) of the same compound?
A: 2.1 nM

Q: And the neuronal cell viability (F11 cells)?
A: did not modulate neuronal cell viability
